Data as given in patent US7045343B2, “Sterilization indicator test packs” (3M Innovative Properties Company, priority 1998, dated 2006).

Test system: Bacillus stearothermophilus spores
Assay: Spore outgrowth (color change) of indicators after prevacuum steam sterilization
Type: cell-based
Details: 4-pulse prevacuum steam 121° C.
Procedure, shortened: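 Bacillus stearothermophilus ATCC 7953 spores were cleaned, mixed into a heated sterilant-resistant coating chemical solution and pipetted onto paper strips at about 1×10^6 spores per strip. The strips were dried and placed in indicators, then exposed to a 4-pulse prevacuum steam cycle at 121° C. After exposure the media ampoule was crushed, and growth was judged visually as a purple-to-yellow color change after 168 hours at 60° C.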

[1] = Example 4, 50 mg/ml coating, 7–18 min

Decaglyceryl Monostearate
NO. GROWTH POSITIVE 168 HR (Example 1, 10 mg/ml coating, 7–13 min): 39 | NO. GROWTH POSITIVE 168 HR (Example 1, 20 mg/ml coating, 7–13 min): 34 | NO. GROWTH POSITIVE 168 HR (Example 1, 40 mg/ml coating, 7–13 min): 59 | NO. GROWTH POSITIVE 168 HR (Example 1, 80 mg/ml coating, 7–13 min): 55 | NO. GROWTH POSITIVE 168 HR (Example 1, 100 mg/ml coating, 7–13 min): 34 | GROWTH POSITIVE 168 HR (Example 3, 100 mg/ml coating, 7–15 min): 20 | NO. GROWTH POSITIVE 168 HR [1]: 29

Decaglyceryl Decaoleate
NO. GROWTH POSITIVE 168 HR [1]: 31 | NO. GROWTH POSITIVE 168 HR (Example 4, 100 mg/ml coating, 7–18 min): 30
